Measured values taken from US8648076B2, “Cysteine protease inhibitors and their therapeutic applications” (Hybrigenics SA, priority 2005, dated 2014).
Like-named read-outs stand apart in the source and are kept apart here.

Columns and labels:
[1] = test system: HCT116 colon cancer cells; assay: HCT116 cell viability and proliferation assay (MTS); format: cell-based; conditions: Homo sapiens, read-out: HCT116 D3 GI50
[2] = target: T1, USP8 (Homo sapiens, UniProt P40818); assay: USP8 activity assay; format: biochemical; conditions: 400 nM Ub-AMC, pH8.8, 30 min pre-incubation at 25° C., 60 min at 37° C.; sigmoidal fit; AF: Autofluorescent; read-out: USP 8 (inhibition of cysteine protease activity)
T1 sequence (P40818 1-1118): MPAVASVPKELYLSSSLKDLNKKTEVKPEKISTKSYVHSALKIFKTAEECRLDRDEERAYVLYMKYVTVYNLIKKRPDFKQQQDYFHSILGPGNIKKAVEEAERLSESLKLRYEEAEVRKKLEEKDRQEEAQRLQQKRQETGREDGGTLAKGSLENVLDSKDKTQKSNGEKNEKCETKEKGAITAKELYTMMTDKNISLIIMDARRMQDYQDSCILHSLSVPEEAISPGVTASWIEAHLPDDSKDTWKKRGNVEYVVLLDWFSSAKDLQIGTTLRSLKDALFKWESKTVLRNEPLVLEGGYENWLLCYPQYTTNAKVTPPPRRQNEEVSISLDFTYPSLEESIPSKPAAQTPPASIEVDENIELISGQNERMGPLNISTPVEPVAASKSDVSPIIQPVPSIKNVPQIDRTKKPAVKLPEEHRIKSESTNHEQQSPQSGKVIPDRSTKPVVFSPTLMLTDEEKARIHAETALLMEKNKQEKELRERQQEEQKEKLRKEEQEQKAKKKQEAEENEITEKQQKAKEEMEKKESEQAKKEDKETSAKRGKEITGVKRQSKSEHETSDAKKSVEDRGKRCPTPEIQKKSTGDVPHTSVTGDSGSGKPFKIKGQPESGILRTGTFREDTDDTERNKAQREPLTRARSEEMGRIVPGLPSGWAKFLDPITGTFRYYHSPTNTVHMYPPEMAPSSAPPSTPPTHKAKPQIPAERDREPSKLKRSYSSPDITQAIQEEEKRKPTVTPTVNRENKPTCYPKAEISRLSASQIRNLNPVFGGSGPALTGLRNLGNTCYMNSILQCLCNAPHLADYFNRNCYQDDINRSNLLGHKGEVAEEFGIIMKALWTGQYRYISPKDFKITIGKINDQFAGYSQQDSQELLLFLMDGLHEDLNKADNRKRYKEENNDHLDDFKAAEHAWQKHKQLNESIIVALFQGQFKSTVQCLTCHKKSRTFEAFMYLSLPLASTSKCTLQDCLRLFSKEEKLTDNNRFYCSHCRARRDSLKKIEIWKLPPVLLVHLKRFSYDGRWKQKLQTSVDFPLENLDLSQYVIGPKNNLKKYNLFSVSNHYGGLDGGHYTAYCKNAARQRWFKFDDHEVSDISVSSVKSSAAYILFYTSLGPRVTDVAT

[3] = test system: PC-3 prostate cancer cells; assay: PC3 cell viability and proliferation assay (MTS); format: cell-based; conditions: Homo sapiens, PC-3, 72 h, read-out: PC3 D3 GI50
[4] = target: T2, USP5 (Homo sapiens, UniProt P45974); assay: USP5 activity assay; format: biochemical; conditions: 400 nM Ub-AMC, 300 pM enzyme, 30 min pre-incubation at 25° C., 60 min at 37° C.; sigmoidal fit; AF: Autofluorescent; read-out: USP 5 (inhibition of cysteine protease activity)
T2 sequence (P45974 1-858): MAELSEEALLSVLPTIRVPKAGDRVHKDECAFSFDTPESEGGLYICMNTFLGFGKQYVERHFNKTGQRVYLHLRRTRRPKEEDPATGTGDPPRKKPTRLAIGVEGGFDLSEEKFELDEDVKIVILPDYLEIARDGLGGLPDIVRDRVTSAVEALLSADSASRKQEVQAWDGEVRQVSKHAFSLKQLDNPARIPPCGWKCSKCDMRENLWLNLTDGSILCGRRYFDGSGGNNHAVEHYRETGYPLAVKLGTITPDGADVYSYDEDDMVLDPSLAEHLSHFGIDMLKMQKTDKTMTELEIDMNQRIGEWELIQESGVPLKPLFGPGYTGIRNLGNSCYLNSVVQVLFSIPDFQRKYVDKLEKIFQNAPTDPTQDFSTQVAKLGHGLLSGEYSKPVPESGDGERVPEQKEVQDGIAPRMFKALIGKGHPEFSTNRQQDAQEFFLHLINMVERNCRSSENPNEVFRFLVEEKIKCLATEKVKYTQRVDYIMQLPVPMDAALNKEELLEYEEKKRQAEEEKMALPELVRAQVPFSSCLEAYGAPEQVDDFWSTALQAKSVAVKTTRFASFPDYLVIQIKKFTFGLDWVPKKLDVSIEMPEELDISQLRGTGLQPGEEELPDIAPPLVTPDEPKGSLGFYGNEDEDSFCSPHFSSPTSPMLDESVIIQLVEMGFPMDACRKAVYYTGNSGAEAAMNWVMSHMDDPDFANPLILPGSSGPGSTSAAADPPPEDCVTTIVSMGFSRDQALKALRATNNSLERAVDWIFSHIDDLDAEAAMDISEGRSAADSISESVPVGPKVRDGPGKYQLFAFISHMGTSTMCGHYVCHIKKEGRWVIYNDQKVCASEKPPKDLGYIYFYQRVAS
Experimental: Bovine Serum Albumin 0.05 mg·ml^−1 pH7.6). Compounds stocks (100 mM) were stored at −20° C. in DMSO. […] Reactions were performed as duplicates in Black LJL 96 well plates (HE microplates; Molecular Devices; 20 μl final reaction volume). The substrate concentration for USP5 was 400 nM Ub-AMC (Boston Biochem). The concentrations of the enzyme (USP5) in specificity assays was 300 pM. The concentrations were determined in order to perform specificity assays under initial velocities at fixed substrate concentration. Compounds were pre-incubated with enzymes for 30 minutes at 25° C. Reactions were initiated by addition of substrate to the plates containing the enzymes (+/− compounds) diluted in assay buffer. Reactions were incubated for 60 minutes at 37° C. Reactions were stopped by adding acetic acid (100 mM final). Readings were performed on a Pherastar Fluorescent Reader (BMG). λ Emission 380 nm; λ Excitation=460 nm. Data (mean values +/− standard deviation) were analyzed as % of control (no compound) and plotted as percentage versus the Log of the compound concentration using GraphPad (Prism). Data were fitted to a sigmoidal model (variable slope).

[5] = HCT-116, HCT116 cells, 72 hours incubation, MTS, mean of 3 independent experiments
[6] = PC3 cells, 72 hours incubation, MTS, mean of 3 independent experiments

Row | Compound | GI50 ([1]; HCT-116, 72 h) [nM] | IC50 [2] [nM] | GI50 [3] [nM] | IC50 [4] [nM] | GI50 [1, 5] [nM] | GI50 [3, 6] [nM]
1 | N#Cc1nc2c(nc1C#N)-c1cc(Cl)c(Cl)cc1C2=O [Example 31, 6,7-dichloro-9-oxo-9H-indeno[1,2-b]pyrazine-2,3-dicarbonitrile] | 753 | 76 | 2430 | 329 | – | –
2 | COCCOc1nc2c(nc1C#N)C(=O)c1ccccc1-2 [Example 5, 3-(2-methoxy-ethoxy)-9-oxo-9H-indeno[1,2-b]pyrazine-2-carbonitrile] | – | 53000 | – | > 100000 | > 10000 | > 10000
3 | N#Cc1nc2c(nc1Cl)-c1ccccc1C2=O [Example 9, 3-chloro-9-oxo-9H-indeno[1,2-b]pyrazine-2-carbonitrile] | – | 16200 | – | > 100000 | > 10000 | > 10000
4 | N#Cc1nc2c(nc1N1CCC(F)(F)CC1)-c1ccccc1C2=O [Example 8, 3-(4,4-difluoro-piperidin-1-yl)-9-oxo-9H-indeno[1,2-b]-pyrazine-2-carbonitrile] | – | > 100000 | – | > 100000 | > 10000 | > 10000
5 | COc1ccc2c(c1)C(=O)c1nc(C#N)c(C#N)nc1-2 [Example 17i, 7-Methoxy-9-oxo-9H-indeno[1,2-b]pyrazine-2,3-dicarbonitrile] | – | 2100 | – | 23000 | 560 | 1270
6 | N#Cc1nc2c(nc1C#N)C(=O)c1ccccc1C2=O [Example 20, 5,10-dioxo-5,10-dihydro-benzo[g]quinoxaline-2,3-dicarbonitrile] | 780 | > 100000 | 1260 | > 100000 | – | –
7 | COc1ccc2c(c1OC)C(=O)c1nc(C#N)c(C#N)nc1-2 [Example 17d, 7,8-Dimethoxy-9-oxo-9H-indeno[1,2-b]pyrazine-2,3-dicarbonitrile] | – | 710 | – | 2500 | 680 | 910
8 | N#Cc1nc2c(nc1C(N)=O)-c1ccccc1/C2=N\O [Example 11, 2-cyano-9-[hydroxyimino]-9H-indeno[1,2-b]pyrazine-3-carboxylic acid amide] | – | 730 | – | 2100 | 1600 | 1240
9 | CN(C)c1nc2c(nc1C#N)C(=O)c1ccccc1-2 [Example 4, 3-dimethylamino-9-oxo-9H-indeno[1,2-b]pyrazine-2-carbonitrile] | – | > 100000 | – | > 100000 | > 10000 | > 10000
10 | CCON=C1c2ccccc2-c2nc(C(N)=O)c(C#N)nc21 [Example 34b, 2-Cyano-9-ethoxyimino-9H-indeno[1,2-b]pyrazine-3-carboxylic acid amide] | 469 | 63 | 479 | 523 | – | –
11 | N#Cc1nc2c(nc1C#N)-c1ccc(F)cc1C2=O [Example 17h, 7-Fluoro-9-oxo-9H-indeno[1,2-b]pyrazine-2,3-dicarbonitrile] | – | 250 | – | 1000 | 160 | 570
12 | Cc1cccc2c1C(=O)c1nc(C#N)c(C#N)nc1-2 [Example 17c, 8-Methyl-9-oxo-9H-indeno[1,2-b]pyrazine-2,3-dicarbonitrile] | – | 3100 | – | 60000 | 390 | 930
13 | N#CNc1nc2c(nc1C#N)C(=O)c1ccccc1-2 [Example 21, 2-cyano-9-oxo-9H-indeno[1,2-b]pyrazin-3-yl-cyanamide] | – | > 100000 | – | > 100000 | > 10000 | > 10000
14 | COCCON=C1c2ccccc2-c2nc(C(N)=O)c(C#N)nc21 [Example 34c, 2-Cyano-9-(2-methoxy-ethoxyimino)-9H-indeno[1,2-b]pyrazine-3-carboxylic acid amide] | 378 | 71 | 362 | 606 | – | –
15 | N#Cc1nc2c(nc1C#N)-c1ccccc1C2=NO [Example 12, 9-[hydroxyimino]-9H-indeno[1,2-b]pyrazine-2,3-dicarbonitrile] | – | 7000 | – | 45000 | 6500 | 4400
16 | N#Cc1nc2c(nc1C#N)-c1ccc(Cl)cc1C2=NNC(N)=O [Example 43, 9-[(aminocarbonyl)hydrazono]-7-chloro-9H-indeno[1,2-b]pyrazine-2,3-dicarbonitrile] | 512 | 814 | 655 | > 100000 | – | –
17 | COc1cc2c(cc1OC)-c1nc(C#N)c(C#N)nc1C2=O [Example 17b, 6,7-Dimethoxy-9-oxo-9H-indeno[1,2-b]pyrazine-2,3-dicarbonitrile] | – | 2500 | – | > 100000 | 530 | 920
